Results: paper PMC5575254, “An allosteric ligand-binding site in the extracellular cap of K2P channels” (Nature Communications, 2017)

How the values were obtained:
TREK-1 [1] = test system: TREK-1; parameters: method as in earlier work; details: ref [2] Borsotto M, et al. (2015); cited from earlier work
TREK-1 channel = target: T1, TREK-1 channel (Homo sapiens, UniProt O95069); assay: Whole-cell voltage clamp of CHO cells transiently transfected with TREK-1; type: cell-based; details: whole-cell, CHO cells, WT TREK-1, mean ± s.e.m; for IC50: read-out: half-maximal inhibition concentration (IC50), TREK-1
T1 construct: expressed in transfected cells; host or cells: CHO cells, transient transfection
T1 sequence (O95069 1-411 isoform O95069-2): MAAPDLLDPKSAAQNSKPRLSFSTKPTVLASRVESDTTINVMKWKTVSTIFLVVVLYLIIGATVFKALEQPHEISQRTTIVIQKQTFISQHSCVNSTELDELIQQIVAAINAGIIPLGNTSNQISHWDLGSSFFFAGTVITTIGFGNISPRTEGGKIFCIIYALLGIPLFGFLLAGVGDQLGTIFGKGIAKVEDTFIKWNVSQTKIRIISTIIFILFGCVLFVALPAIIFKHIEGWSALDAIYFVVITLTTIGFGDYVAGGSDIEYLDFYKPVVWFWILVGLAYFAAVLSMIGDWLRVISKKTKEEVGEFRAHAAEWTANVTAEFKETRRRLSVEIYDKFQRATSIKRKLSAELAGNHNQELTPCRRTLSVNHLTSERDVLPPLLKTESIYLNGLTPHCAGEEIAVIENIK
From the text: (§1) cDNA of the human TREK-1, TREK-2 and TRAAK channels were subcloned into the pEGFPN1 expression vector (Invitrogen), respectively. Mutations were introduced into TREK-1 or TRAAK by PCR using the QuickChange XL sitedirected mutagenesis kit (Agilent Technologies) and were subsequently confirmed by DNA sequencing.
(§2) Chinese hamster ovary (CHO) cells were provided by the Cell Bank of Chinese Academy of Sciences (Shanghai, China). CHO cells were maintained in DMEM/F12 (Gibco) supplemented with 10% fetal bovine serum (Gibco) and 100 μg ml^−1 penicillin-streptomycin (Cellgro) in a humidified incubator at 37 °C (5% CO2). For electrophysiology experiments, cells plated in 35 mm tissue culture dishes (Corning Incorporated) were transiently transfected with the plasmids using PolyJet™ reagent (SignaGen) according to the manufacturer’s instructions. Primers used in this study are listed in Supplementary Table 4.
(§3) All electrophysiological recordings were obtained using patch-clamp recordings in two different configurations: (1) whole cell for macroscopic current dose–response curves; and (2) outside-out and inside-out for macroscopic currents recordings.
(§4) All patch-clamp recordings were conducted 36–96 h after transfection with an Axopatch-200B amplifier (Molecular Devices) at room temperature (23–25 °C). The microelectrodes fashioned from 1.5 mm thin-walled borosilicate glass with filament were pulled from Flaming/Brown type micropipette puller (P-97; SUTTER INSTRUMENT) with the resistances of 3–7 MΩ (whole cell) or 7–15 MΩ (outside-out) when filled with a solution containing (in mM): 140 KCl, 2 MgCl2, 10 EGTA, 1 CaCl2, 10 HEPES (pH 7.3, adjusted with KOH). External solution contained (in mM): 150 NaCl, 5 KCl, 0.5 CaCl2, 1.2 MgCl2, 10 HEPES (pH 7.3, adjusted with NaOH). The current signals were filtered at 1 kHz and digitized at a 10 kHz sampling frequency by using DigiData 1440 A.
(§5) Data of whole-cell voltage clamp experiments were fitted using doseResp function. The half inhibition concentrations were derived from fits of the dose–response curves to the function:1 I/I0=A1+A2-A1/1+10^logx0-xP, where I 0 and I are current amplitudes before and after application of inhibitors; A 1 and A 2 are constants between 0 and 1; x is the concentration of inhibitor; x o is the concentration when 50% inhibition was reached (IC50), P is the Hill constant.

TRAAK = target: T2, TRAAK (Homo sapiens, UniProt Q9NYG8); assay: Whole-cell voltage clamp of CHO cells expressing TRAAK; type: cell-based; details: for IC50: whole-cell, CHO cells, WT TRAAK, mean ± s.e.m
T2 construct: expressed in transfected cells; host or cells: CHO cells, transient transfection
T2 sequence (Q9NYG8 1-393): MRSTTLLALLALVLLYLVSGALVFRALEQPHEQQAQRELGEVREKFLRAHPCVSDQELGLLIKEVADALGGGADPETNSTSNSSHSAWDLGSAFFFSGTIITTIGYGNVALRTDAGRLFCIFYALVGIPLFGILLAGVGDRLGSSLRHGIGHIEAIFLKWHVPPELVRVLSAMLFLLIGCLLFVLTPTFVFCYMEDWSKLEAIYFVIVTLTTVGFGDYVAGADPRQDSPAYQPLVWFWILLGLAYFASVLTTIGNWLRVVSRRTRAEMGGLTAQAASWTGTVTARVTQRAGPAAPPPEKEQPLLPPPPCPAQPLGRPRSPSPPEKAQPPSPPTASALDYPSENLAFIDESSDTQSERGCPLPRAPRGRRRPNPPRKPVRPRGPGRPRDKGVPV
From the text: as §1, §2, §3, §4, §5

TREK-2 [2] = target: T3, TREK-2 (Homo sapiens, UniProt P57789); assay: Whole-cell voltage clamp of CHO cells expressing TREK-2; type: cell-based; details: mean ± s.e.m
T3 construct: expressed in transfected cells; host or cells: CHO cells, transient transfection
T3 sequence (P57789 1-538): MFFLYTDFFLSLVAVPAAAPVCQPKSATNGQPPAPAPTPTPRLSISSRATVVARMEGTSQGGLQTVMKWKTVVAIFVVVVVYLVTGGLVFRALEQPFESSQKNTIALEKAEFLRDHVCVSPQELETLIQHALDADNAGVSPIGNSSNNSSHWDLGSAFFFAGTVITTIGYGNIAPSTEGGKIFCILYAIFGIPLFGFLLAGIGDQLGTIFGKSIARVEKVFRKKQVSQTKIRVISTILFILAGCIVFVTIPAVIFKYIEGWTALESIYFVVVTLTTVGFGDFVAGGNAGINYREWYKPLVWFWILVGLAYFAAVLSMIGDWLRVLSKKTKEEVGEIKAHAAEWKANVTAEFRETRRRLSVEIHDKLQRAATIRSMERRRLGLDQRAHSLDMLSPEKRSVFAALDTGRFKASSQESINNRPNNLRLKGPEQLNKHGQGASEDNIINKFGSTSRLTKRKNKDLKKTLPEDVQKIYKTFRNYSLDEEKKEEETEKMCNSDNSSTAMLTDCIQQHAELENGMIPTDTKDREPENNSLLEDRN
From the text: as §1, §2, §3, §4, §5

K2P channels = test system: K2P channels; parameters: method as in PMID 9628867, PMID 8605869; details: ref [26], [27]; cited from earlier work
mice = assay: Forced swimming test; type: in vivo, Male C57BL/6 mice; details: chronic i.p. administration 10 days; TKDC 0.5, 1, 5 mg kg-1; fluoxetine 10 mg kg-1; vs vehicle
Experimental: Male C57BL/6 mice, aged 8 weeks (weighing 18–20 g) were used for acute and chronic drug administration and behavioral tests. The mice were housed four per cage under a 12-h light–dark cycle. Mice were raised under stable conditions with food and water ad libitum. All animal studies and experimental procedures were approved by the Animal Care Committees of the Shanghai Institute of Materia Medica, Chinese Academy of Sciences, and experiments were carried out in accordance with EU Directive 2010/63/EU on the protection of animals used for scientific purposes. […] The mice were removed to a sound-attenuating testing room 3–4 h before testing. The behavioral tests were carried out 30 min and 24 h after acute and chronic drugs administration, respectively.
The mice were performed under normal light. The apparatus was a transparent Plexiglas cylinder with 30 cm height × 10 cm diameter and the water temperature at 23–25 °C were set to prevent mice from touching the bottom with their limbs. Mice were allowed to swim for 8 min, and their activity was videotaped. There was an extra 15-min swimming in the previous day. The duration of immobility defined as floating or remaining motionless was assessed. To avoid extremely active at the beginning of swimming, the first 2 min of swimming was also excluded as the tail suspension test. […]

TREK channels = details: ref [7], [16]; cited from earlier work
TASK-3 = test system: TASK-3; parameters: method as in PMID 25409575, PMID 18417474, PMID 12606773, PMID 16513667; details: binds E70; ref [22]-[25]; cited from earlier work
TREK-1 [3] = test system: TREK-1; parameters: method as in Braun et al. [22]; details: ref Braun et al. [22]; cited from earlier work
TREK-2 [4] = test system: TREK-2; parameters: method as in PMID 25409575, PMID 18417474, PMID 12606773, PMID 16513667; details: binds D135; ref [22]-[25]; cited from earlier work
I110D TREK-1 mutant = test system: I110D TREK-1 mutant; parameters: method as in PMID 25409575; details: ref [22]; cited from earlier work

spadin
effect on TREK-1 (TREK-1 [1]): specifically blocks the TREK-1

Cc1cc(NC(=O)c2cccs2)cc(-c2nc3ccccc3o2)c1O [TKN2]
IC50 (TREK-1 channel): 3.8 ± 0.6 µM | IC50 (TRAAK): 10.3 ± 1.5 µM | IC50 (TREK-2 [2]): 1.7 ± 0.8 µM

COc1ccccc1C(=O)Nc1cc(C(C)C)ccc1O [TKN1]
IC50 (TREK-1 channel): 6.5 ± 1.7 µM | IC50 (TRAAK): 15.7 ± 3.1 µM | IC50 (TREK-2 [2]): 4.4 ± 1 µM

CC[N+](CC)(CC)CC [tetraethylammonium]
sensitivity of K2P channels to classical potassium channel pore blockers (K2P channels): insensitivity

CNCCC(Oc1ccc(C(F)(F)F)cc1)c1ccccc1 (centres unmarked) [fluoxetine, reference compound]
immobility in the forced swimming test (mice): did not show antidepressant effects | effect on TREK channels (TREK channels): can also inhibit TREK channels

Nc1ccncc1 [4-aminopyridine]
sensitivity of K2P channels to classical potassium channel pore blockers (K2P channels): insensitivity

O=C(CNc1ccc(Cl)cc1)N1CCc2ccccc2C1 [28NH, 2-((4-chlorophenyl)amino)-1-(3,4-dihydroisoquinolin-2(1H)-yl)ethanone]
half-maximal inhibition concentration (IC50), TREK-1 (TREK-1 channel): comparable to those observed for TKDC-induced inhibitions | IC50 for TRAAK relative to the value obtained with TKDC (TRAAK; 28NH vs TKDC): almost sevenfold lower | IC50 (TRAAK): 11.8 ± 2.1 µM | IC50, TREK-2 (TREK-2 [2]): comparable to those observed for TKDC-induced inhibitions

[Cs+] [cesium ion]
sensitivity of K2P channels to classical potassium channel pore blockers (K2P channels): insensitivity

N.N.N.N.N.N.N.N.N.N.N.N.N.N.[Cl-].[Cl-].[Cl-].[Cl-].[Cl-].[Cl-].[O-2].[O-2].[Ru+3].[Ru+3].[Ru+4] [ruthenium red]
effect on TASK-3 (TASK-3): inhibit | sensitivity of TREK-1 (TREK-1 [3]): not sensitive | effect on TREK-2 (TREK-2 [4]): inhibit | effect on I110D TREK-1 mutant (I110D TREK-1 mutant): inhibits
